Assay results from patent US9428478B2, “Piperazine derivatives, compositions, and uses related thereto” (Emory University, priority 2011, dated 2016).
In brackets after ≈: the same amount, converted by molar mass. One block for each molecule: values may come before it.

Columns and labels:
Nox2 [1] = biological target: T1, Nox2 (Homo sapiens (Human), UniProt P04839); assay: Nox2 activity assay for primary screening (cell free, human neutrophil plasma membranes, LO12 luminescence); assay type: biochemical
Protocol: Nox2 activity assay for primary screening: Plasma membranes were prepared from human neutrophils, which express large amounts of Nox2, stored at −80 C until use. See Curnutte et al., J. Biol. Chem. 1987, 262, 6450-6452, hereby incorporated by reference. Membranes are mixed with recombinant, purified cytosolic regulatory proteins (p67Np47N chimera, and a constitutively active mutant of Rac, Rac1(Q61)) and FAD, along with varying concentrations of compound, and LO12, which emits light when it reacts with ROS. The reaction is initiated by addition of NADPH and SDS (an artificial activator of Nox2).
Target sequence in this assay (P04839 2-570): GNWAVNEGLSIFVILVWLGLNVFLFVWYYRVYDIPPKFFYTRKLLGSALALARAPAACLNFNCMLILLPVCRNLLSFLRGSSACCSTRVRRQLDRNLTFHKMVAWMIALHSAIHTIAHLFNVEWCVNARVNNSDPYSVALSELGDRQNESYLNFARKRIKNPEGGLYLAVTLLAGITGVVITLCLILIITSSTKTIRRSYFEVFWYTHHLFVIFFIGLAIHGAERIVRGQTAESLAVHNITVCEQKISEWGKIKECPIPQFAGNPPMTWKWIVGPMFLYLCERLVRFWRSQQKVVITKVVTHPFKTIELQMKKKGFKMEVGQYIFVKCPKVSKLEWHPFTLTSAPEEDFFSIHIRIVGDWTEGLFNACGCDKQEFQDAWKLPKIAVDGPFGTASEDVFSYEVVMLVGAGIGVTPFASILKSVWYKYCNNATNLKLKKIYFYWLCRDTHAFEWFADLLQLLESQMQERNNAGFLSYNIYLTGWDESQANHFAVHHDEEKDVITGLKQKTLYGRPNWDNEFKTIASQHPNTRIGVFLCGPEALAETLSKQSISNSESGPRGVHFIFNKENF

xanthine oxidase = xanthine oxidase (Homo sapiens (Human), UniProt P47989); assay: Assay control: xanthine oxidase (XO) replaces Nox2 as the source of ROS, LO12 luminescence; assay type: biochemical; details: Table 2, xanthine oxidase control
Sequence of xanthine oxidase (P47989 whole entry, species assumed): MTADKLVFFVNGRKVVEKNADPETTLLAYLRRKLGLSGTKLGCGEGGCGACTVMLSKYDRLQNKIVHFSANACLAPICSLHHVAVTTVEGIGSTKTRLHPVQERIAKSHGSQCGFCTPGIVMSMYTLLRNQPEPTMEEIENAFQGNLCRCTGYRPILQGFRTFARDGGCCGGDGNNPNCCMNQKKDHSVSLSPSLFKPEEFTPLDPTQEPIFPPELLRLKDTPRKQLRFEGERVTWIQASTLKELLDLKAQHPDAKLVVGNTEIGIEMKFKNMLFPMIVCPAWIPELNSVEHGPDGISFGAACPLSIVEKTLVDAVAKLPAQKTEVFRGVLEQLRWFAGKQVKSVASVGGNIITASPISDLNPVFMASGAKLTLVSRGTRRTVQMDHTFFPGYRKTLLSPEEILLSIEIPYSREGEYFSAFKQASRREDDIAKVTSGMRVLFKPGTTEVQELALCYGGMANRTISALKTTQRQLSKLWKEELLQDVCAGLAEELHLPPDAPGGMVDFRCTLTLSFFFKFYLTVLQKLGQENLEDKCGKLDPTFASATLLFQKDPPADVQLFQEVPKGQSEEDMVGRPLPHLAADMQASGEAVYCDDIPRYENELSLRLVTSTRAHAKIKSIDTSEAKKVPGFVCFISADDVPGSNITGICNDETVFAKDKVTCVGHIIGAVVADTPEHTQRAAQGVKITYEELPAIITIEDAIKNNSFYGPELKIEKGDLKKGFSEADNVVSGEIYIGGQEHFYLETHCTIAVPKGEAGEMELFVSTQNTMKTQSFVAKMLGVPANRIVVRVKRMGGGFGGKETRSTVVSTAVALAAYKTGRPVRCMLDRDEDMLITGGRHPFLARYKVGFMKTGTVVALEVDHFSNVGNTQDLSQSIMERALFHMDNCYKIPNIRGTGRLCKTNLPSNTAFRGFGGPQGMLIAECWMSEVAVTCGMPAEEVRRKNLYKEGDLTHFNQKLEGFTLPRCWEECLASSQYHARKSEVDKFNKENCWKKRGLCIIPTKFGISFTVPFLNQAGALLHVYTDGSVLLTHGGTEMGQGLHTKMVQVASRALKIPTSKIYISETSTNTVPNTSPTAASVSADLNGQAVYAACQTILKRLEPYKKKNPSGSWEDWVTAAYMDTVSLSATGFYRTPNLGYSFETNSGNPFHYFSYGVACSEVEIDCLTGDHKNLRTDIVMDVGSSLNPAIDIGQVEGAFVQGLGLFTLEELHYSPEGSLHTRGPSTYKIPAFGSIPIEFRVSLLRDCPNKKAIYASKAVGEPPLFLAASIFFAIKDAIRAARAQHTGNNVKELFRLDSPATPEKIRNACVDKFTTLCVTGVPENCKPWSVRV
Protocol: Assay controls. To rule out interference with either Nox2 or Nox4 luminescence assays, two approaches are used. In one, xanthine oxidase replaces the Nox2 enzymatic system as the source of ROS in the Nox2/LO12 assay. Xanthine is added to initiate the reaction and LO12 luminescence is recorded. In the other, exogenous H2O2 is supplied in place of the Nox4 expressing H2O2-generating cells and luminescence is recorded.

[2] = Stability in liver S9-fractions, dog; assay type: in vitro ADME; details: read-out: Stability in liver S9-fractions (t ½) Dog (converted)
Solubility = assay type: physicochemical
[3] = Stability in liver S9-fractions, mouse; assay type: in vitro ADME; details: read-out: Stability in liver S9-fractions (t ½) Mouse (converted)
[4] = Stability in liver S9-fractions, human; assay type: in vitro ADME; details: read-out: Stability in liver S9-fractions (t ½) Human (converted)
Nox2 [5] = biological target: T1, Nox2; assay: Nox2 assay in human neutrophils (PMN), LO12 luminescence; assay type: cell-based
Protocol: (§1) Nox2 assay in human neutrophils: Human neutrophils were obtained from healthy volunteers (REF). LO12 luminescence was quantified as above. Nox4 assay using stably transfected HEK cell: HEK cells stably transfected with human Nox4 were incubated with varying concentrations of compound along with LO12.
Target sequence in this assay (P04839 whole entry, looked up): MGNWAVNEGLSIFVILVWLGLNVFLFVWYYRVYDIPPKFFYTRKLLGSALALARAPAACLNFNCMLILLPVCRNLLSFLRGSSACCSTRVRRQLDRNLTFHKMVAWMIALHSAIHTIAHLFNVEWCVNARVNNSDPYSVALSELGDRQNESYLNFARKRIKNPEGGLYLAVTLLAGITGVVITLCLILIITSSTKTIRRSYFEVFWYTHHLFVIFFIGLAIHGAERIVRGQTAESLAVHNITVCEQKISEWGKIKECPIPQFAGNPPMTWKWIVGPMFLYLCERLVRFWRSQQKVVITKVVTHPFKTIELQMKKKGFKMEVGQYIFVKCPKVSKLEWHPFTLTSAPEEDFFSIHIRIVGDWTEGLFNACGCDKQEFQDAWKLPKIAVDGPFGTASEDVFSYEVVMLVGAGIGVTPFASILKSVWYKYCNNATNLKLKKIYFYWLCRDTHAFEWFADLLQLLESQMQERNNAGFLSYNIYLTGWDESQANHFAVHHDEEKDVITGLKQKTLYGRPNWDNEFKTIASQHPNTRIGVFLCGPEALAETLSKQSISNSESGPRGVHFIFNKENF
Target sequence in this assay (P13498 whole entry partner, looked up): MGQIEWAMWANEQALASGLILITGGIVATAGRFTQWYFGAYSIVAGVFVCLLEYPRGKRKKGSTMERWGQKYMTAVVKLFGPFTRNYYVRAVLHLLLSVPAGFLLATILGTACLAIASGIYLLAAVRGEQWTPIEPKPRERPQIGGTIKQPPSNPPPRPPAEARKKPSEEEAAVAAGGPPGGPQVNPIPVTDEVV

Nox1 = Nox1 (Homo sapiens (Human), UniProt Q9Y5S8); assay: Nox1 inhibition; assay type: biochemical; details: Table 3
Sequence of Nox1 (Q9Y5S8 whole entry, species assumed): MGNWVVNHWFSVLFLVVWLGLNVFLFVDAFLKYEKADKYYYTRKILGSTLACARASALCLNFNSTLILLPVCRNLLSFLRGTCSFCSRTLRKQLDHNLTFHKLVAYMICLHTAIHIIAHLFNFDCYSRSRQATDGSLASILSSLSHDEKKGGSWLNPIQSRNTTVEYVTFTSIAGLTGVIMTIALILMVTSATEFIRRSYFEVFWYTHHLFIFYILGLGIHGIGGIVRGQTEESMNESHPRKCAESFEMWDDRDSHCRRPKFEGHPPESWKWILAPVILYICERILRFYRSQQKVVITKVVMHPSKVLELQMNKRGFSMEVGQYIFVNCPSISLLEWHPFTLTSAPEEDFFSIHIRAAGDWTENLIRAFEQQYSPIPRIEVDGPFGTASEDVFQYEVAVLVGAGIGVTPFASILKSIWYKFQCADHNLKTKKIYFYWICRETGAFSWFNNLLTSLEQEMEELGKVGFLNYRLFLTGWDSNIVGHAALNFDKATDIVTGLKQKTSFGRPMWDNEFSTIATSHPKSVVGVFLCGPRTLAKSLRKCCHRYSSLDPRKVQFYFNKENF
Sequence of Nox1 (P13498 2-195 partner, species assumed): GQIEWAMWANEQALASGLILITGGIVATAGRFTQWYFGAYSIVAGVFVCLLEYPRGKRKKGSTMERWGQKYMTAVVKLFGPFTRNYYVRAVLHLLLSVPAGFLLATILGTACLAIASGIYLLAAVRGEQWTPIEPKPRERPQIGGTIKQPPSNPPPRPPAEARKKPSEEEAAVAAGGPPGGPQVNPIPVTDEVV

Nox5 = Nox5 (Homo sapiens (Human), UniProt Q96PH1); assay: Nox5 inhibition; assay type: biochemical; details: Table 3
Sequence of Nox5 (Q96PH1 whole entry, species assumed): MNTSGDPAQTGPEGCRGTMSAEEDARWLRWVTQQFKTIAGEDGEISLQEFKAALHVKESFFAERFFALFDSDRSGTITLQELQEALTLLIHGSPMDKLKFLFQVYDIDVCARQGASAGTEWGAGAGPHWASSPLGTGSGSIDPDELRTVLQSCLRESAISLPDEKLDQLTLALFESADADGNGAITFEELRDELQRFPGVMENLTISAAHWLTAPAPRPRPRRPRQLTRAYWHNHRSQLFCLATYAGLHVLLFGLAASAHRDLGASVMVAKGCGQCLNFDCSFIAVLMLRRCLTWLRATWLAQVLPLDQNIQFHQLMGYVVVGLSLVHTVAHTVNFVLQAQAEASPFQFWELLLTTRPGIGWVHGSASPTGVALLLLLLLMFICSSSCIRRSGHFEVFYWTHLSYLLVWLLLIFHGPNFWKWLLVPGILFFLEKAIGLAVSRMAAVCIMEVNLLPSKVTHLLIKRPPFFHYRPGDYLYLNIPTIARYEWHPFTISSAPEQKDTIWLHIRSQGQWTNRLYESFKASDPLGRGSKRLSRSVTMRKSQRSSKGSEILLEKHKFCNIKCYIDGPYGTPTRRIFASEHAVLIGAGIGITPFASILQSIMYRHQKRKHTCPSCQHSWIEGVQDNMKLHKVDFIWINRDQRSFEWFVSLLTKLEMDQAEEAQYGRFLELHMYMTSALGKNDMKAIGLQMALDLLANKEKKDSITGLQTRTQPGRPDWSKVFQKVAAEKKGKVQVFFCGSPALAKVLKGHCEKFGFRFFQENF

human Nox4 = human Nox4 (Homo sapiens (Human), UniProt Q9NPH5); assay: Nox4 assay using stably transfected HEK cells; assay type: cell-based
Sequence of human Nox4 (Q9NPH5 whole entry): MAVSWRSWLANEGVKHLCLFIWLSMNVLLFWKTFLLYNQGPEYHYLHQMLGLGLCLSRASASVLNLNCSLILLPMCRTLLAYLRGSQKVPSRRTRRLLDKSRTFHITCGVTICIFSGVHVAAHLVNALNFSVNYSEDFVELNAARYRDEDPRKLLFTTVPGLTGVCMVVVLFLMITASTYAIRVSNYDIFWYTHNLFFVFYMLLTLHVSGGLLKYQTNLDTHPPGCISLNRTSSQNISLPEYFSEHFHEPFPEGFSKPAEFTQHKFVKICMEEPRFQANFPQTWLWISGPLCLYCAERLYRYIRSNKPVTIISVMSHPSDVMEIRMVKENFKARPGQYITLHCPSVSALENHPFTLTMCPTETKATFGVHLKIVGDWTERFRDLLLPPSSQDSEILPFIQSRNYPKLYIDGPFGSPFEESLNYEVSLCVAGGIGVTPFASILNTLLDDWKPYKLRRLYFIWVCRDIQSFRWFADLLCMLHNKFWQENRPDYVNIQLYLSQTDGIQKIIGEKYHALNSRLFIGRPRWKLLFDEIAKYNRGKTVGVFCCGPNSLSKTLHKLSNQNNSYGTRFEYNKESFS
Sequence of human Nox4 (P13498 2-195 partner): as the sequence (P13498 2-195 partner, species assumed) above
Protocol: as §1
Nox4 produces hydrogen peroxide rather than superoxide; under these conditions LO12 luminesces only after the addition of horseradish peroxidase to initiate the reaction.

[6] = Table 3, read-out: Nox2 (Cell Free)
[7] = Table 3, human neutrophils, read-out: Nox2 (PMN)

Compound: COc1ccc(N2CCN(C(=O)c3cc4cc(OC)c(OC)cc4[nH]3)CC2)cc1 [TG6-181]
IC50 (xanthine oxidase): > 20000 nM
IC50 (Nox2 [1]; Table 2, read-out: IC50 Nox2): 800 nM

Compound: CC(=O)c1ccc2[nH]c(C(=O)N3CCN(c4ccc(OC(C)C)cc4)CC3)cc2c1 [TG6-251-2]
IC50 (Nox2 [1]; Table 2, read-out: IC50 Nox2): 1000 nM

Compound: O=C(c1cc2cc([N+](=O)[O-])ccc2[nH]1)N1CCN(c2ccc(OC(F)(F)F)cc2)CC1 [TG6-209]
inhibition at 2 µM (Nox2 [1]): 25%

Compound: COc1ccc(N2CCN(C(=O)c3[nH]c4ccc(OC)cc4c3NC(C)=O)CC2)cc1 [TG6-208]
inhibition at 2 µM (Nox2 [1]): 60%

Compound: COc1ccc(N2CCN(C(=O)c3cc4cc(C(N)=O)ccc4[nH]3)CC2)cc1F [TG6-254-1]
IC50 (Nox2 [1]; Table 2, read-out: IC50 Nox2): 2000 nM

Compound: CC(C)Oc1ccc(N2CCN(C(=O)c3nc4cc(C(N)=O)ccc4[nH]3)CC2)cc1 [TG6-251-1]
IC50 (xanthine oxidase): ≥ 20000 nM
IC50 (Nox2 [1]; Table 2, read-out: IC50 Nox2): 1000 nM

Compound: COc1ccc(N2CCN(C(=O)c3cc4cc(S(C)(=O)=O)ccc4[nH]3)CC2)cc1 [TG6-218]
inhibition at 6 µM (Nox2 [1]): 40%

Compound: COc1ccc(N2CCN(C(=O)c3cc4cc(C(C)=O)ccc4[nH]3)CC2)cc1F [TG6-252]
IC50 (Nox2 [1]; Table 2, read-out: IC50 Nox2): 3000 nM

Compound: O=C(c1cc2cc(O)ccc2[nH]1)N1CCN(c2ccc(OC(F)(F)F)cc2)CC1 [TG6-205-2]
IC50 (xanthine oxidase): 200 nM
IC50 (Nox2 [1]; Table 2, read-out: IC50 Nox2): 1500 nM

Compound: COC(=O)C1CN(c2ccc(OC)cc2)CCN1C(=O)c1nc2cc(F)ccc2[nH]1 (stereo not drawn) [TG6-235]
IC50 (xanthine oxidase): > 20000 nM
IC50 (Nox2 [1]; Table 2, read-out: IC50 Nox2): 1000 nM

Compound: CNC(=O)c1ccc2[nH]c(C(=O)N3CCN(c4ccc(OC)cc4)CC3)cc2c1 [TG6-223]
IC50 (xanthine oxidase): > 20000 nM
IC50 (Nox2 [1]; Table 2, read-out: IC50 Nox2): 500 nM

Compound: CCN(CC)CCNCc1c(C(=O)N2CCN(c3ccc(OC)cc3)CC2)[nH]c2ccc(F)cc12 [TG6-298, (3-(((2-(diethylamino)ethyl)amino)methyl)-5-fluoro-1H-indol-2-yl)(4-(4-methoxyphenyl)piperazin-1-yl)methanone]
solubility (Solubility): 150 µM (≈ 72.2 µg/mL)
IC50 (Nox2 [1]; [6]): 300 nM
IC50 (Nox2 [5]; [7]): 200 nM
IC50 (Nox1): 900 nM

Compound: CCOc1ccc(N2CCN(C(=O)c3cc4cc(C(C)=O)ccc4[nH]3)CC2)cc1 [TG6-238]
IC50 (xanthine oxidase): ≥ 20000 nM
IC50 (Nox2 [1]; Table 2, read-out: IC50 Nox2): 800 nM

Compound: CNC(=O)c1ccc2[nH]c(C(=O)N3CCN(c4ccc(OC)c(F)c4)CC3)cc2c1 [TG6-254-2]
IC50 (Nox2 [1]; Table 2, read-out: IC50 Nox2): 10000 nM

Compound: COC(=O)c1ccc2[nH]c(C(=O)N3CCN(c4ccc(OC)cc4)CC3)cc2c1 [TG6-222]
IC50 (xanthine oxidase): > 20000 nM
IC50 (Nox2 [1]; Table 2, read-out: IC50 Nox2): 300 nM

Compound: CCN1CCN(Cc2c(C(=O)N3CCN(c4ccc(OC)cc4)CC3)[nH]c3ccc(F)cc23)CC1 [TG7-33, (3-((4-ethylpiperazin-1-yl)methyl)-5-fluoro-1H-indol-2-yl)(4-(4-methoxyphenyl)piperazin-1-yl)methanone]
IC50 (Nox5): 800 nM
solubility (Solubility): 250 µM (≈ 120 µg/mL)
IC50 (Nox2 [1]; [6]): 800 nM
IC50 (Nox2 [5]; [7]): 700 nM
IC50 (Nox1): 400 nM

Other lines, results leading:

inhibition at 2.5 µM (Nox2 [1]): 40%
Compound: COc1ccc(N2CCN(C(=O)[C@H]3Cc4ccccc4N3)CC2)cc1 [TG6-214]

IC50 (xanthine oxidase): > 20000 nM
half-life [2]: 2.5 h
solubility (Solubility): < 25 µM
half-life [3]: 5 h
IC50 (Nox2 [1]; Table 2, read-out: IC50 Nox2): 500 nM
IC50 (Nox2 [1]; [6]): 400 nM
half-life [4]: 4.2 h
IC50 (Nox2 [5]; [7]): 200 nM
IC50 (Nox1): 500 nM
Compound: COc1ccc(N2CCN(C(=O)c3cc4ccccc4[nH]3)CC2)cc1 [TG6-225]

IC50 (xanthine oxidase): > 20000 nM
IC50 (Nox2 [1]; Table 2, read-out: IC50 Nox2): 500 nM
Compound: COc1ccc(N2CCN(C(=O)c3cc4cc(C(=O)O)ccc4[nH]3)CC2)cc1 [TG6-236]

IC50 Nox2 (Nox2 [1]; Table 2): Not active
Compound: O=C(c1nc2cc(F)ccc2[nH]1)N1CCN(c2ccc(OC(F)(F)F)cc2)CC1 [TG6-206]

inhibition at 0.3 µM (Nox2 [1]): 30%
Compound: COc1ccc(N2CCN(C(=O)c3cc4cc(Br)ccc4[nH]3)CC2)cc1 [TG6-203]

IC50 (Nox2 [1]; Table 2, read-out: IC50 Nox2): 1500 nM
Compound: COc1ccc(N2CCN(C(=O)c3cnc4ccc(F)cc4c3O)CC2)cc1 [TG6-191]

IC50 (Nox2 [1]; Table 2, read-out: IC50 Nox2): 5000 nM
Compound: COc1ccc(N2CCN(C(=O)c3cc4cc(F)ccc4[nH]3)CC2)cc1 [TG6-179-1]

IC50 (xanthine oxidase): > 20000 nM
IC50 Nox2 (Nox2 [1]; Table 2): Not active
Compound: CCc1ccc2[nH]c(C(=O)N3CCN(c4ccc(OC)cc4)CC3)cc2c1 [TG6-202]

IC50 (Nox2 [1]; Table 2, read-out: IC50 Nox2): 800 nM
Compound: CCOc1ccc(N2CCN(C(=O)c3nc4cc(F)ccc4[nH]3)CC2)cc1 [TG6-242]

IC50 (xanthine oxidase): > 20000 nM
half-life [2]: 4 h
solubility (Solubility): < 25 µM
half-life [3]: 5 h
IC50 (Nox2 [1]; Table 2, read-out: IC50 Nox2): 700 nM
IC50 (Nox2 [1]; [6]): 1000 nM
half-life [4]: 1 h
IC50 (Nox2 [5]; [7]): 400 nM
IC50 (Nox1): 600 nM
Compound: COc1ccc(N2CCN(C(=O)c3nc4cc(F)ccc4[nH]3)CC2)cc1 [TG6-179-3, (5-fluoro-1H-benzo[d]imidazol-2-yl)(4-(4-methoxyphenyl)piperazin-1-yl)methanone]

IC50 (xanthine oxidase): > 20000 nM
IC50 (Nox2 [1]; Table 2, read-out: IC50 Nox2): 1000 nM
Compound: COc1ccc(N2CCN(C(=O)c3nc4cc(OC)ccc4[nH]3)CC2)cc1 [TG6-228]

IC50 (Nox5): 600 nM
solubility (Solubility): 270 µM
IC50 (Nox2 [1]; [6]): 700 nM
IC50 (Nox2 [5]; [7]): 500 nM
IC50 (Nox1): 600 nM
Compound: CCN(CC)Cc1c(C(=O)N2CCN(c3ccc(OC)cc3)CC2)[nH]c2ccc(F)cc12.Cl [TG7-34, (3-((diethylamino)methyl)-5-fluoro-1H-indol-2-yl)(4-(4-methoxyphenyl)piperazin-1-yl)methanone]

IC50 Nox2 (Nox2 [1]; Table 2): Not active
Compound: COc1ccc(N2CCN(C(=O)c3cnc4c(F)cccc4c3O)CC2)cc1 [TG6-192]

IC50 (xanthine oxidase): ≥ 20000 nM
IC50 (Nox2 [1]; Table 2, read-out: IC50 Nox2): 1000 nM
Compound: COc1ccc(N2CCN(C(=O)c3cnc4cc(C(C)=O)ccc4c3O)CC2)cc1 [TG6-239]

IC50 (xanthine oxidase): > 20000 nM
selectivity for Nox2 compared with Nox4 (human Nox4): ≥ 100 fold
IC50 (human Nox4; using two different assays): 20000 to 30000 nM
half-life [2]: 2 h
solubility (Solubility): < 25 µM
half-life [3]: 3 h
IC50 (Nox2 [1]; Table 2, read-out: IC50 Nox2): 400 nM
IC50 (Nox2 [1]; [6]): 300 nM
IC50 (Nox2 [1]; read-out: IC50, Nox2 cell free system): 200 to 300 nM
half-life [4]: 0.75 h
IC50 (Nox2 [5]; [7]): 200 nM
IC50 (Nox2 [5]; read-out: IC50, ROS production in human neutrophils): 200 to 300 nM
IC50 (Nox1): 600 nM
Compound: COc1ccc(N2CCN(C(=O)c3cc4cc(C(C)=O)ccc4[nH]3)CC2)cc1 [TG6-161, 1-(2-(4-(4-methoxyphenyl)piperazine-1-carbonyl)-1H-indol-5-yl)ethanone]

IC50 (Nox5): 600 nM
solubility (Solubility): 250 µM (≈ 120 µg/mL)
IC50 (Nox2 [1]; [6]): 700 nM
IC50 (Nox2 [5]; [7]): 200 nM
IC50 (Nox1): 500 nM
Compound: COc1ccc(N2CCN(C(=O)c3[nH]c4ccc(F)cc4c3CNC3CCN(C)CC3)CC2)cc1 [TG7-32, (5-fluoro-3-(((1-methylpiperidin-4-yl)amino)methyl)-1H-indol-2-yl)(4-(4-methoxyphenyl)piperazin-1-yl)methanone]

IC50 (xanthine oxidase): > 20000 nM
half-life [2]: 4.5 h
solubility (Solubility): 190 µM (≈ 71.9 µg/mL)
half-life [3]: 6 h
IC50 (Nox2 [1]; Table 2, read-out: IC50 Nox2): 700 nM
IC50 (Nox2 [1]; [6]): 600 nM
half-life [4]: 2 h
IC50 (Nox2 [5]; [7]): 100 nM
IC50 (Nox1): 300 nM
Compound: COc1ccc(N2CCN(C(=O)c3cc4cc(C(N)=O)ccc4[nH]3)CC2)cc1 [TG6-227]

IC50 (Nox2 [1]; Table 2, read-out: IC50 Nox2): 1000 nM
Compound: COc1ccc(N2CCN(C(=O)c3[nH]c4ccc(C(C)=O)cc4c3C)CC2)cc1 [TG6-190]

IC50 (xanthine oxidase): < 100 nM
IC50 (Nox2 [1]; Table 2, read-out: IC50 Nox2): 500 nM
Compound: COc1ccc(N2CCN(C(=O)c3cc4cc(O)ccc4[nH]3)CC2)cc1 [TG6-199]

IC50 (Nox5): 1500 nM
solubility (Solubility): 276 µM
IC50 (Nox2 [1]; [6]): 800 nM
IC50 (Nox2 [5]; [7]): 200 nM
IC50 (Nox1): 600 nM
Compound: COc1ccc(N2CCN(C(=O)c3[nH]c4ccc(F)cc4c3CN3CCOCC3)CC2)cc1.Cl [TG7-31, (5-fluoro-3-(morpholinomethyl)-1H-indol-2-yl)(4-(4-methoxyphenyl)piperazin-1-yl)methanone]

IC50 (Nox2 [1]; Table 2, read-out: IC50 Nox2): 700 nM
Compound: COc1ccc(N2CCN(C(=O)c3[nH]c4ccc(F)cc4c3C)CC2)cc1 [TG6-200]

IC50 (Nox2 [1]; Table 2, read-out: IC50 Nox2): 500 nM
Compound: COc1ccc(N2CCN(C(=O)c3cc4cc(OC)ccc4[nH]3)CC2)cc1 [TG6-179-2]
